Experiment [1] deals with PIM3 (Homo sapiens, UniProt Q86V86). In words: KinaseGlo Pim3 ATP depletion assay. The class given is biochemical. A digest of the protocol:
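Kinase was preincubated 15 min with BAD peptide in HEPES pH 7.5/MgCl2/DTT/BSA before ATP was added. Final concentrations were 40 μM ATP, 100 μM BAD peptide and 2.5% DMSO, with 5 nM enzyme. The reaction ran to ~50% ATP depletion and remaining ATP was read by KinaseGlo Plus luminescence.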
On the technique in general: In Kinase-Glo more light means more ATP remaining.

The test system of experiment [2] is KMS11 (human myeloma cell line). As to the kind of experiment: Cell proliferation assay (CellTiter-Glo), KMS11. The format is cell-based. Particulars: Homo sapiens, KMS-11; KMS11-Luc cells. A digest of the protocol: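 KMS11 cells in IMDM with 10% FBS and sodium pyruvate, seeded at 2000 cells/well on assay day. Compound added at 2× to equal volume of cells, incubated 3 days at 37° C. Viability read by CellTiter-Glo luminescence; EC50 derived.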

The target in experiment [3] is PIM1 (Homo sapiens, UniProt P11309). As to the kind of experiment: KinaseGlo Pim1 ATP depletion assay. The format is biochemical. A digest of the protocol:
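2.5 nM PIM1 preincubated 15 min with compound and 40 μM BAD peptide in 50 mM HEPES pH 7.5, 5 mM MgCl2, 1 mM DTT, 0.05% BSA, 2.5% DMSO. The reaction was started with 20 μM ATP (final) and run to about 50% ATP depletion. Remaining ATP read by KinaseGlo Plus luminescence to give IC50.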

Experiment [4] deals with GSK3β (Homo sapiens, UniProt P49841). In words: GSK3β ATP depletion assay. The class given is biochemical. Particulars: read-out: GSK3b IC50. The method in brief:
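Human GSK3β (5 nM) preincubated 15 min with 10 μM biotinylated phospho-CREB peptide in pH 7.5 Tris buffer (15 mM MgCl2, 1 mM DTT, 0.1% BSA, 2.5% DMSO). Reaction started with 2 μM ATP and run to about 50% ATP depletion. Remaining ATP measured by KinaseGlo luminescence.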

The target in experiment [5] is PIM2 (Homo sapiens, UniProt Q9P1W9). In words: KinaseGlo Pim2 ATP depletion assay. The format is biochemical. The method in brief: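 Luminescent ATP-depletion read-out of PIM2 phosphorylating BAD peptide (RSRHSSYPAGT-OH). Final conditions: 5 nM PIM2, 4 μM ATP, 10 μM peptide, 2.5% DMSO in 50 mM HEPES pH 7.5, 5 mM MgCl2, 1 mM DTT, 0.05% BSA. Enzyme–peptide preincubated 15 min with compound; reaction run to ~50% ATP depletion.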

Molecules are shown by their SMILES.

What is called IC50 is the point on the concentration scale where inhibition reaches its midpoint. Broadly, the EC50 is the midpoint of the concentration-response curve.

Sequence of GSK3β (P49841 whole entry, species assumed): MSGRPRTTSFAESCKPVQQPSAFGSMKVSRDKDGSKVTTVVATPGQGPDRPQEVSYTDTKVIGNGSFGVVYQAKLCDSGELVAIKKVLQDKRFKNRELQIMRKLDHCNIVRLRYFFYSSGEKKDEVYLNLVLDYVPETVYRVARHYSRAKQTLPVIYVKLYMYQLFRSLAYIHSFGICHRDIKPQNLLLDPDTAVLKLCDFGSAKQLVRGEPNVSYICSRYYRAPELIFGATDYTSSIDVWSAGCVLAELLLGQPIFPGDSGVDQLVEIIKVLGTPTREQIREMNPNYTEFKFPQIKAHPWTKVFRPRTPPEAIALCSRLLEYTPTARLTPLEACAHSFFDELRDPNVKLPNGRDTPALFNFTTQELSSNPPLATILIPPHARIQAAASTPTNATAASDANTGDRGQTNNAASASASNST
Sequence of PIM2 (Q9P1W9 whole entry): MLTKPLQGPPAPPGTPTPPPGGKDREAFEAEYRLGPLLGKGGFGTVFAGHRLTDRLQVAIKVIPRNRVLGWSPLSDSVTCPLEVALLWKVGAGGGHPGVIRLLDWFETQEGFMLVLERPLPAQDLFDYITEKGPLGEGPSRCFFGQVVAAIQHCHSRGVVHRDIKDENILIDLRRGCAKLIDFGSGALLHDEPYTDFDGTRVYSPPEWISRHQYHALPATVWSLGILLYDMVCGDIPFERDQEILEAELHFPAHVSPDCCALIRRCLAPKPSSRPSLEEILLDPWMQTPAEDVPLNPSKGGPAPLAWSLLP
Sequence of PIM1 (P11309 whole entry): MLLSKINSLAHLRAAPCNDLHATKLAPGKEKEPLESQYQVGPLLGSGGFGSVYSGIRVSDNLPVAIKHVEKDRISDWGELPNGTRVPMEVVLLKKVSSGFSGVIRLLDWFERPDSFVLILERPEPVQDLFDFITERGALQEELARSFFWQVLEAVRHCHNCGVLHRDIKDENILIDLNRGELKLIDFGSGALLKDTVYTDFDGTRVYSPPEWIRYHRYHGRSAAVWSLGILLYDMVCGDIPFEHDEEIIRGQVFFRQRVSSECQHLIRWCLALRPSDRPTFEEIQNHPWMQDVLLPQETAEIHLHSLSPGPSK

With `Nc1cnc(-c2c(F)cccc2F)nc1C(=O)Nc1cnccc1[C@H]1C[C@@H](O)[C@H](O)[C@@H](C2CC2)O1` [Example 207, 5-amino-N-(4-((2R,4R,5S,6R)-6-cyclopropyl-4,5-dihydroxytetrahydro-2H-pyran-2-yl)pyridin-3-yl)-2-(2,6-difluorophenyl)pyrimidine-4-carboxamide], the IC50 in experiment [1] was found to be 8.5 nM; in experiment [3], 6.3 nM; in experiment [4], 572 nM; in experiment [5] it was 6 nM. Further, the EC50 in experiment [2] came out at 6450 nM.
The like results for `C=C[C@H]1OC(c2ccncc2NC(=O)c2nc(-c3ccccc3)ncc2N)=C[C@@H](O)[C@@H]1O` [Example 22, 5-amino-N-(4-((2R,3S,4R)-3,4-dihydroxy-2-vinyl-3,4-dihydro-2H-pyran-6-yl)pyridin-3-yl)-2-phenylpyrimidine-4-carboxamide] were, in that order, 9 nM, 20 nM, 870 nM, 160 nM and over 10000 nM.
The corresponding values for `C[C@H]1O[C@@H](c2ccncc2NC(=O)c2ccc(F)c(-c3c(F)cccc3F)n2)C[C@@H](N)[C@@H]1O` [Example 116, N-(4-((2R,4R,5S,6R)-4-amino-5-hydroxy-6-methyltetrahydro-2H-pyran-2-yl)pyridin-3-yl)-6-(2,6-difluorophenyl)-5-fluoropicolinamide] are 7 nM, 2 nM, 3060 nM, 23 nM and 1900 nM.
The corresponding values for `C[C@@H]1O[C@H](c2ccncc2NC(=O)c2csc(-c3c(F)cccc3F)n2)C[C@H](N)[C@H]1O` [Example 113, N-(4-((2S,4S,5R,6S)-4-amino-5-hydroxy-6-methyltetrahydro-2H-pyran-2-yl)pyridin-3-yl)-2-(2,6-difluorophenyl)thiazole-4-carboxamide] are 11 nM, 5 nM, 64 nM, 142 nM and over 10000 nM.
For the molecule `CC1(C)O[C@@H](c2ccncc2NC(=O)c2ccc(F)c(-c3c(F)cccc3F)n2)C[C@H](O)[C@@H]1O` [Example 89, 6-(2,6-difluorophenyl)-N-(4-((2R,4S,5S)-4,5-dihydroxy-6,6-dimethyltetrahydro-2H-pyran-2-yl)pyridin-3-yl)-5-fluoropicolinamide], the IC50 in experiment [1] came to 2 nM; in experiment [3], 1 nM; in experiment [4], 88 nM; in experiment [5], 6 nM. Moreover, a half-maximal response in experiment [2] (EC50) required 2400 nM.
The like results for `CC[C@H]1O[C@@H](c2ccncc2NC(=O)c2ccnc(-c3c(F)cccc3F)n2)C[C@@H](O)[C@@H]1O` [Example 34, 2-(2,6-difluorophenyl)-N-(4-((2R,4R,5S,6R)-6-ethyl-4,5-dihydroxytetrahydro-2H-pyran-2-yl)pyridin-3-yl)pyrimidine-4-carboxamide] were, in that order, 38 nM, 22 nM, 61 nM, 170 nM and 5000 nM.
With `O=C(Nc1cnccc1[C@H]1C[C@@H](O)CC2(CC2)O1)c1csc(-c2c(F)cccc2F)n1` [Example 61, 2-(2,6-difluorophenyl)-N-(4-((5R,7R)-7-hydroxy-4-oxaspiro[2.5]octan-5-yl)pyridin-3-yl)thiazole-4-carboxamide], the IC50 turned out to be 20 nM in experiment [1], 7 nM in experiment [3], 65 nM in experiment [4] and 599 nM in experiment [5]. The molecule further yielded an EC50 in experiment [2] of over 10000 nM.
The like results for `C[C@H]1O[C@@H](c2ccncc2NC(=O)c2ccc(F)c(-c3c(F)cccc3F)n2)C[C@@H](O)[C@]1(C)O` (stereo in doubt) [Example 110, 6-(2,6-difluorophenyl)-N-(4-((2R,4R,5S,6R)-4,5-dihydroxy-5,6-dimethyltetrahydro-2H-pyran-2-yl)pyridin-3-yl)-5-fluoropicolinamide] were, in that order, 16 nM, 19 nM, 659 nM, 347 nM and over 10000 nM.
The corresponding values for `O=C(Nc1cnccc1[C@H]1C[C@@H](O)[C@H](O)[C@@H](CO)O1)c1ccc(F)c(-c2c(F)cccc2F)n1` [Example 83, 6-(2,6-difluorophenyl)-N-(4-((2R,4R,5S,6R)-4,5-dihydroxy-6-(hydroxymethyl)tetrahydro-2H-pyran-2-yl)pyridin-3-yl)-5-fluoropicolinamide] are 32 nM, 19 nM, 2800 nM, 291 nM and over 10000 nM.
The like results for `N[C@H]1C[C@@H](c2ccncc2NC(=O)c2ccc(F)c(-c3c(F)cccc3F)n2)O[C@H]2CCC[C@]21O` [Example 212, N-(4-((2S,4S,4aR,7aS)-4-amino-4a-hydroxyoctahydrocyclopenta[b]pyran-2-yl)pyridin-3-yl)-6-(2,6-difluorophenyl)-5-fluoropicolinamide] were, in that order, 155 nM, 17.9 nM, 11500 nM, 508 nM and 3360 nM.
As for `C[C@H]1O[C@@H](c2ccncc2NC(=O)c2csc(-c3c(F)cccc3F)n2)C[C@@H](N)[C@@H]1O` [Example 114, N-(4-((2R,4R,5S,6R)-4-amino-5-hydroxy-6-methyltetrahydro-2H-pyran-2-yl)pyridin-3-yl)-2-(2,6-difluorophenyl)thiazole-4-carboxamide], the IC50 worked out at 14 nM in experiment [1], 4 nM in experiment [3], 652 nM in experiment [4] and 144 nM in experiment [5]. Moreover, the EC50 in experiment [2] came out at 1500 nM.
For the molecule `C=C[C@H]1OC(c2ccncc2NC(=O)c2ccc(F)c(-c3c(F)cccc3F)n2)=C[C@@H](O)[C@@H]1O` [Example 44, 6-(2,6-difluorophenyl)-N-(4-((2R,3S,4R)-3,4-dihydroxy-2-vinyl-3,4-dihydro-2H-pyran-6-yl)pyridin-3-yl)-5-fluoropicolinamide], the IC50 turned out to be 1 nM in experiment [1], 1 nM in experiment [3], 339 nM in experiment [4] and 1 nM in experiment [5]. For the same molecule, the midpoint of the response in experiment [2], the EC50, lay at 900 nM.
For `O=C(Nc1cnccc1[C@@H]1OCC[C@H](CO)O1)c1csc(-c2c(F)cccc2F)n1` [Example 99, 2-(2,6-difluorophenyl)-N-(4-((2R,4R)-4-(hydroxymethyl)-1,3-dioxan-2-yl)pyridin-3-yl)thiazole-4-carboxamide], the IC50 in experiment [1] is 75 nM; in experiment [3] it was 14 nM; in experiment [4] it was 3170 nM; in experiment [5], 3380 nM. Besides, in experiment [2], the EC50 was over 10000 nM.
The like results for `Nc1cc(F)c(-c2ccccc2F)nc1C(=O)Nc1cnccc1C1=C[C@@H](O)[C@H](O)[C@@H](CCl)O1` [Example 29, 3-amino-N-(4-((2S,3S,4R)-2-(chloromethyl)-3,4-dihydroxy-3,4-dihydro-2H-pyran-6-yl)pyridin-3-yl)-5-fluoro-6-(2-fluorophenyl)picolinamide] were, in that order, 1 nM, 1 nM, 41 nM, 1 nM and 4670 nM.
The like results for `O=C(Nc1cnccc1C1=C[C@@H](O)[C@H](O)[C@@H](CCl)O1)c1ccnc(-c2c(F)cccc2F)n1` [Example 28, N-(4-((2S,3S,4R)-2-(chloromethyl)-3,4-dihydroxy-3,4-dihydro-2H-pyran-6-yl)pyridin-3-yl)-2-(2,6-difluorophenyl)pyrimidine-4-carboxamide] were, in that order, 3 nM, 2 nM, 22 nM, 7 nM and 808 nM.
The like results for `C=C[C@H]1OC(c2ccncc2NC(=O)c2nc(-c3c(F)cccc3F)ncc2N)=C[C@@H](O)[C@@H]1O` [Example 144, 5-amino-2-(2,6-difluorophenyl)-N-(4-((2R,3S,4R)-3,4-dihydroxy-2-vinyl-3,4-dihydro-2H-pyran-6-yl)pyridin-3-yl)pyrimidine-4-carboxamide] were, in that order, 4.3 nM, 5.3 nM, 394 nM, 3.7 nM and 4340 nM.
In the case of `Nc1cc(F)c(-c2c(F)cccc2F)nc1C(=O)Nc1cnccc1C1=C[C@@H](O)[C@H](O)[C@@H](CCl)O1` [Example 30, 3-amino-N-(4-((2S,3S,4R)-2-(chloromethyl)-3,4-dihydroxy-3,4-dihydro-2H-pyran-6-yl)pyridin-3-yl)-6-(2,6-difluorophenyl)-5-fluoropicolinamide], the IC50 in experiment [1] was found to be 1 nM; in experiment [3] it was 1 nM; in experiment [4], 201 nM; in experiment [5], 1 nM. The same molecule registered an EC50 in experiment [2] of 825 nM.
